Data set [1] relates to HGC-27. In words: Antiproliferative activity against human HGC-27 cells assessed as reduction in cell viability after 24 hrs by MTT assay. It is filed as functional, cell-based. The conditions noted are these: HGC-27, 24 h. On the technique in general: Tetrazolium assays rely on reduction of a dye to a coloured formazan, in cell work by metabolically active cells.
Data set [2] deals with HGC-27. In words: Antiproliferative activity against human HGC-27 cells assessed as EdU positive cells at 1 to 8 uM for 24 hrs by y EdU assay (reference value: 56.2%). The conditions noted are these: dose 1-8 µM. It is filed as functional.
The test system of data set [3] is MGC-803. As to the kind of experiment: Inhibition of cell migration in human MGC-803 cells assessed as reduction in migration at 0.5 to 4 uM for 24 hrs by wound healing assay. Format: functional, cell-based. The conditions noted are these: dose 0.5-4 µM, DDE = dose-dependent effect.
The test system of data set [4] is MGC-803. As to the kind of experiment: Inhibition of cell migration in human MGC-803 cells assessed as reduction in migration at 0.5 to 4 uM for 24 hrs by transwell migration assay. It is filed as functional, cell-based. Particulars: dose 0.5-4 µM, DDE = dose-dependent effect.
Data set [5] relates to MGC-803. As to the kind of experiment: Inhibition of cell invasion in human MGC-803 cells assessed as reduction in invasion at 0.5 to 4 uM for 24 hrs by transwell invasion assay. Format: functional, cell-based. The conditions noted are these: dose 0.5-4 µM, DDE = dose-dependent effect.
The test system of data set [6] is HGC-27. In words: Down regulation of MMP9 expression in human HGC-27 cells at 2 to 16 uM after 24 hrs by western blot analysis. Format: functional, cell-based. The conditions noted are these: dose 2-16 µM, DDE = dose-dependent effect.
Data set [7] has as its system MGC-803. In words: Induction of cell cycle arrest in human MGC-803 cells assessed as cells accumulation at G2/M phase at 1.25 to 10 uM after 48 hrs by propidium iodide staining based flow cytometric analysis(reference value: 13.1%). Format: functional. The conditions noted are these: dose 1.25-10 µM. (In general: A flow cytometer gives signals particle by particle.)

Data set [8] deals with HGC-27. As to the kind of experiment: Induction of cell cycle arrest in human HGC-27 cells assessed as cells accumulation at G2/M phase at 2 to 16 uM after 48 hrs by propidium iodide staining based flow cytometric analysis (reference value: 5.3%). It is filed as functional. Particulars: dose 2-16 µM.
For data set [9], the system named is HGC-27. In words: Induction of mitochondrial membrane potential loss in human HGC-27 cells assessed as TMRE positive cells at 2 to 16 uM by TRME staining based flow cytometric analysis (reference value: 5.8%). It is filed as functional, cell-based. The conditions noted are these: dose 2-16 µM, DDE = dose-dependent effect.
The test system of data set [10] is MGC-803. As to the kind of experiment: Induction of apoptosis in human MGC-803 cells assessed as reduction in BCl2 expression at 1.25 to 10 uM by western blot analysis. Format: functional, cell-based. Particulars: dose 1.25-10 µM, DDE = dose-dependent effect. Background: Immunoblotting shows a protein as a band on a membrane.
For data set [11], the system named is MGC-803. In words: Induction of apoptosis in human MGC-803 cells assessed as increase in Bax expression at 1.25 to 10 uM by western blot analysis. Format: functional, cell-based. Particulars: dose 1.25-10 µM, DDE = dose-dependent effect.
The subject of data set [12] is MGC-803. As to the kind of experiment: Induction of apoptosis in human MGC-803 cells assessed as decrease in cytochrome C expression at 1.25 to 10 uM by western blot analysis. Format: functional, cell-based. The conditions noted are these: dose 1.25-10 µM, DDE = dose-dependent effect.
In data set [13] the test system is HGC-27. In words: Induction of ROS generation in human HGC-27 cells at 2 to 16 uM by DCFH-DA staining based fluorescence microscopic analysis. Format: functional, cell-based. Particulars: dose 2-16 µM, DDE = dose-dependent effect.
Data set [14] relates to HGC-27. In words: Inhibition of PI3K/AKT/mTOR signalling pathway in human HGC-27 cells assessed as reduction in PI3K phosphorylation at 2 to 16 uM by western blot analysis. It is filed as cell-based. Particulars: dose 2-16 µM, DDE = dose-dependent effect.
A further data set is filed under the species Homo sapiens. In words: Inhibition of DNA topoisomerase 1 (unknown origin) assessed as relaxation of supercoiled plasmid pBR322 DNA at 12.5 to 100 uM incubated for 30 mins by agarose gel electrophoresis. Particulars: dose 12.5-100 µM.
Data set [15] in a line: Tmax in Sprague-Dawley rat at 50 mg/kg, ip measured upto hrs by LC-MS analysis. The conditions noted are these: in vivo, time < 24 hrs. Format: ADME, organism-based.
Data set [16] deals with MGC-803. As to the kind of experiment: Antitumor activity against human MGC-803 cells xenografted in immunodeficient nude mouse assessed as tumor volume at 50 mg/kg, ip administered for 3 weeks (reference value: 1039.6 mm3). Format: functional.
In data set [17] the test system is MGC-803. As to the kind of experiment: Antitumor activity against human MGC-803 cells xenografted in immunodeficient nude mouse assessed as tumor weight at 50 mg/kg, ip administered for 3 weeks (reference value: 157.8 mg). Format: functional.
Data set [18] concerns MGC-803. In words: Antitumor activity against human MGC-803 cells xenografted in immunodeficient nude mouse assessed as increase in TUNEL positive cells at 50 mg/kg, ip administered for 3 weeks by fluorescence microscopic analysis. Format: functional, organism-based.

Molecules are shown by their SMILES. Activity calls are given as the source filed them. No cut-off for these calls is given here.

By IC50 is commonly meant the midpoint of a concentration-inhibition curve. For orientation: Tmax means the time at which the peak concentration occurs. As for `Oc1c(Cc2nccc3cc4c(cc23)OCO4)ccc2c1OCO2`, the IC50 with HGC-27 [1] was determined as 7.6 µM. Besides, the Activity is 20.8% in the data set on HGC-27 [2]; “Dde” in the data set on HGC-27 [6]; 54.4% in the data set with MGC-803 [7]; 51.2% in the data set with HGC-27 [8]; “Dde” with HGC-27 [9]; “Dde” in the data set on MGC-803 [10]. The Activity result in the data set on MGC-803 [11] is “Dde”; in the data set with MGC-803 [12] it was “Dde”; in the data set with HGC-27 [13], “Dde”; with MGC-803 [16], 440.1 mm3; in the data set with MGC-803 [17], 176.2 mg. Also, the inhibition entry in the data set with MGC-803 [3], in the data set on MGC-803 [4], in the data set with MGC-803 [5] and in the data set with HGC-27 [14] was “Dde” in each case. The inhibition result in the data set listed under Homo sapiens was “Active”. In addition, the Tmax in [15] came to 2 h. The result with MGC-803 [18] was Active.

Source of the values: ChEMBL document CHEMBL5143625, “Isolation, synthesis and bioactivity evaluation of isoquinoline alkaloids from Corydalis hendersonii Hemsl. against gastric cancer in vitro and in vivo” (Bioorg Med Chem, 2022).
